“Also recorded” adds a separate entry of the source.
Legend:
[1] = Observation of adverse reactions in rats during 12 days of continuous administration; format: in vivo; conditions: 150 mg/kg deoxyschizandrin oral
Experimental: In this study, 42 rats were divided equally into seven groups of six rats each, numbered NG2201-NG2207. Among them, the NG2201 and NG2202 group was dosed with 150 mg/kg deoxyschizandrin alone to study the PK of deoxyschizandrin in rats after single and multiple doses; the NG2203 group was administrate dosed with 1.0 mg/kg of Tac; the NG2204-NG2206 groups were dosed with 75, 150, and 300 mg/kg of deoxyschizandrin plus 1.0 mg/kg Tac, respectively, and the NG2207 group was dosed with the Wuzhi capsule (approximately equal to 150 mg/kg of deoxyschizandrin) plus 1.0 mg/kg of Tac ([Teng et al., 2022]). The detailed dosing regimen is shown in Table 2, and all dose in this experiment were calculated according to clinical dose. Blood samples (approximately 300 μL for each) for PK analysis were collected into lithium–heparin tubes. The plasma sampling schedules are outlined below: Blood samples were drawn pre-dose, at 5, 10, 20 and 30 min, and at 1, 1.5, 2, 4, 8 and 24 h after drug administration. The blood samples were centrifuged at 5,000 g for 15 min at 4°C to collect plasma samples, which were placed −80 refrigerator. […]

[2] = Pharmacokinetics of deoxyschizandrin in rats after single and multiple administrations (UHPLC-MS/MS of plasma); format: in vivo, SD rats; conditions: for AUMC0→t / AUC(0-t) / AUC(0-inf) / Cmax / MRT / Tmax / half-life: rat plasma; for AUC(0-t) / AUC(0-inf) / Cmax / MRT / Tmax / half-life: male, SD, rat, plasma
Experimental: The mobile phase A was acetonitrile, and mobile phase B was 0.1% formic acid in water, and the initial mobile phase of gradient elution program was consisted of 60% phase A and 40% phase B. The sample injection volume was set at 10 μL. Gradient elution program was supplied in Supplementary Table S1.
The mass spectrometry detection was achieved on an Agilent 6460A mass spectrometer with ESI source. […] The settings of the mass spectrometer source were as follows: capillary voltage 4,000 V, sheath gas flow 12 L/min, temperature 400°C, dry gas (nitrogen) flow 10 L/min and temperature 350°C, nebulizer pressure 45 psi. All analytes were detected in positive ionization mode. Collision gas (high purity liquid nitrogen) was set at 0.25 MPa. The structures of both two analytes and IS are display in Figure 1.
The pretreatment was performed for the plasma sample by one-step protein precipitation, Briefly, 100 μL sample was transferred into a 1.5 mL EP tube prior to adding with 300 μL methanol(containing 200 ng/mL IS). The mixture was vortex-mixed for 30 s before centrifugation at 17,400 g for 10 min at room temperature, and 100 μL of the supernatant was diluted with 100 μL of acetonitrile (v/v, 1:1) Then, a 10 μL aliquoted of diluted solution was injected into the UHPLC-MS/MS system for analysis.
The protocol of the animal study was approved by the Experimental Animal Ethics Committee of the Shanghai University of Traditional Chinese Medicine. Specific Pathogen Free (SPF) grade SD rats, male, 8 weeks old, 200–250 g, were obtained from the animal experiment center of Shanghai University of Traditional Chinese Medicine. After passing quarantine, the rats were adaptive fed for 2 days. Rats were fasted for 12–14 h, followed by the initiation of pharmacokinetic study of Tac and deoxyschizandrin. This animal study was carried out in accordance with the National Institutes of Health Guide for the Care and Use of Laboratory animals.
In this study, 42 rats were divided equally into seven groups of six rats each, numbered NG2201-NG2207. Among them, the NG2201 and NG2202 group was dosed with 150 mg/kg deoxyschizandrin alone to study the PK of deoxyschizandrin in rats after single and multiple doses; the NG2203 group was administrate dosed with 1.0 mg/kg of Tac; the NG2204-NG2206 groups were dosed with 75, 150, and 300 mg/kg of deoxyschizandrin plus 1.0 mg/kg Tac, respectively, and the NG2207 group was dosed with the Wuzhi capsule (approximately equal to 150 mg/kg of deoxyschizandrin) plus 1.0 mg/kg of Tac ([Teng et al., 2022]). The detailed dosing regimen is shown in Table 2, and all dose in this experiment were calculated according to clinical dose. Blood samples (approximately 300 μL for each) for PK analysis were collected into lithium–heparin tubes. The plasma sampling schedules are outlined below: Blood samples were drawn pre-dose, at 5, 10, 20 and 30 min, and at 1, 1.5, 2, 4, 8 and 24 h after drug administration. The blood samples were centrifuged at 5,000 g for 15 min at 4°C to collect plasma samples, which were placed −80 refrigerator.
The rat plasma collected from each group was pretreated according to the method in section 2.5, and exposure levels of Tac and deoxyschizandrin were determined using the above established UHPLC-MS/MS method and the PKs were calculated using DAS software using non-compartment model (version 2.0, China Pharmacological Society). The data were presented as mean ± SD.

[3] = Stability of the two analytes in rat plasma under different storage conditions; format: in vitro ADME; conditions: n=5
Experimental: To prepare the stock solution, approximately 2.00 mg of Tac, deoxyschizandrin and IS were accurately weighed and dissolved in methanol, respectively. The stock solutions of Tac and deoxyschizandrin with a final concentration of 1.00 mg/mL was obtained, and the IS stock solution was diluted to 100.00 ng/mL using methanol before use. The stock solutions were aliquoted and stored at −80°C. Combined working solutions were prepared by diluting the stock solution using 10% aqueous methanol at the following concentrations: 5.00, 10.00, 20.00, 50.00, 100.00, 200.00, 500.00, 1,000.00, and 2,000.00 ng/mL. Blank rat plasma was used to prepare the calibration standards. Quality-control (QC) samples of two analytes were prepared separately in the same manner at three concentrations, namely, 10 (low concentration), 100 (middle), 1,000 ng/mL (high), and all QC samples were stored at −80°C.
The methodology validation was completed according to FDA guidelines and Chinese Pharmacopoeia (2015 edition), and the linearity, inter- and intra-precision and accuracy, matrix effect and extraction recovery, stability and specificity of this method were validated according to previous study ([Lu et al., 2022]; [Wang et al., 2022]; [Shu et al., 2016]).

[4] = po, 150 mg/kg, NG2201: 150 mg/kg deoxyschizandrin single, D1-D2
[5] = po, 150 mg/kg, NG2202: 150 mg/kg deoxyschizandrin multiple (12 days), D11-D12

increase of C max of deoxyschizandrin after consecutive 12 days of administration ([2]; 150 mg/kg, multiple vs single dose, rats): about 1.5 fold | AUMC0→t ([2]; NG2201: 150 mg/kg deoxyschizandrin single, D1-D2): 4,088.71 ± 1,056.37 ng. h^2/mL | AUMC0→t ([2]; NG2202: 150 mg/kg deoxyschizandrin multiple (12 days), D11-D12): 13,360.23 ± 8,009.79 ng. h^2/mL | AUC(0-t) ([2]; oral, 150 mg/kg, NG2201: 150 mg/kg deoxyschizandrin, first day): 786 ± 174 ng·h/mL | AUC(0-t) ([2]; oral, 150 mg/kg, NG2202: after 12 days of continuous administration of 150 mg/kg deoxyschizandrin): 1810 ± 707 ng·h/mL | AUC(0-inf) [2, 4]: 806 ± 176 ng·h/mL | AUC(0-t) [2, 4]: 786 ± 174 ng·h/mL | Cmax [2, 4]: 148 ± 23.2 ng/mL | MRT [2, 4]: 5.17 ± 0.33 h | Tmax [2, 4]: 0.92 ± 0.2 h | half-life [2, 4]: 4.48 ± 0.53 h | AUC(0-inf) [2, 5]: 2410 ± 1720 ng·h/mL | AUC(0-t) [2, 5]: 1810 ± 707 ng·h/mL | Cmax [2, 5]: 229 ± 54.8 ng/mL | MRT [2, 5]: 6.95 ± 1.42 h | Tmax [2, 5]: 1.5 ± 1.23 h | half-life [2, 5]: 9.1 ± 7.83 h | Auto-sampler stability (24h, 4℃) Mean ± SD ([3]; Nominal Conc. 10 ng/mL): 10.23±0.93 | Bench-top stability (8h, RT) Mean ± SD ([3]; Nominal Conc. 10 ng/mL): 10.63±0.83 | Frozen-thaw stability (3 times) Mean ± SD ([3]; Nominal Conc. 10 ng/mL): 10.45±1.01 | Long-term stability (1 month, -80℃) Mean ± SD ([3]; Nominal Conc. 10 ng/mL): 10.37±0.25 | Auto-sampler stability (24h, 4℃) Mean ± SD ([3]; Nominal Conc. 100 ng/mL): 104.49±5.32 | Bench-top stability (8h, RT) Mean ± SD ([3]; Nominal Conc. 100 ng/mL): 102.39±2.82 | Frozen-thaw stability (3 times) Mean ± SD ([3]; Nominal Conc. 100 ng/mL): 111.56±12.48 | Long-term stability (1 month, -80℃) Mean ± SD ([3]; Nominal Conc. 100 ng/mL): 101.86±11.38 | Auto-sampler stability (24h, 4℃) Mean ± SD ([3]; Nominal Conc. 1000 ng/mL): 1024.65±13.44 | Bench-top stability (8h, RT) Mean ± SD ([3]; Nominal Conc. 1000 ng/mL): 1014.96±11.94 | Frozen-thaw stability (3 times) Mean ± SD ([3]; Nominal Conc. 1000 ng/mL): 1050.50±50.54 | Long-term stability (1 month, -80℃) Mean ± SD ([3]; Nominal Conc. 1000 ng/mL): 1012.51±45.24
Structure (SMILES): COc1cc2c(c(OC)c1OC)-c1c(cc(OC)c(OC)c1OC)C[C@H](C)[C@H](C)C2 [deoxyschizandrin]
adverse reactions [1]: No adverse reactions occurred; also recorded: no adverse effects were demonstrated

Source: article PMC11188489, “Pharmacokinetic assessment of tacrolimus in combination with deoxyschizandrin in rats” (Frontiers in Pharmacology, 2024)
